Holding throughout (type): cell-based
The subject of assay [1] is clinical MDR E. coli isolates. Briefly: MIC, clinical multi-drug resistant E. coli isolates. As to conditions: for MIC: Escherichia coli. The procedure: (§1) Minimum inhibitory concentration (MIC) values were determined according to the Clinical Laboratory Standards Institute guidelines. Frequency of resistance was determined by plating ~5 × 10^8 bacterial cells on agar-solidified media plates containing test compound at concentrations corresponding to four times the measured solid-media MIC of the strains. Colonies were counted after 24 h, restreaked onto media containing the same concentration of compound, and the MIC remeasured against the assayed compound. Genomic DNA from isolated clones was sequenced by paired-end sequencing on an Illumina MiSeq device. Complete experimental details available in SI Appendix. […]
(§2) Minimum inhibitory concentration (MIC) determination. Broth microdilution and agar dilution MIC assays were conducted according to CLSI guidelines (M07-2012). Appropriate inoculation suspension density was assessed using a Sensititre Nephelometer with a Sensititre 0.5 […]
(§3) McFarland Standard. […]
Whole-genome sequencing and data analysis. Genomic DNA of selected clones was prepared using an Epicentre MasterPure Complete DNA Purification Kit. Whole-genome sequencing libraries were prepared using an Illumina Nextera XT Library Preparation Kit. The libraries were sequenced using an Illumina MiSeq device with a V3 600-cycle reagent kit. Whole-genome sequencing data was analyzed using CLC Genomics Workbench Version 11. To determine the genotype of MDR strains from the ENABLE strain collection, de novo assembled contigs were […]

The subject of assay [2] is clinical MDR K. pneumoniae isolates. Kind of assay: MIC, clinical multi-drug resistant K. pneumoniae isolates. The note with it: for MIC: Klebsiella pneumoniae. The procedure:
as §1, §2, §3
To determine the […]
genotype of MDR strains from the ENABLE strain collection, de novo assembled contigs were […]

The test system of another assay is E. coli ATCC 25922. Kind of assay: MIC (CLSI broth microdilution), wild-type E. coli. As to conditions: ATCC 25922 (Table S4); for MIC: Escherichia coli, ATCC25922, read-out: MIC E. coli EN0001. The procedure:
as §1
Minimum inhibitory concentration (MIC) determination. Broth microdilution and agar dilution
MIC assays were conducted according to CLSI guidelines (M07-2012). Appropriate inoculation
suspension density was assessed using a Sensititre Nephelometer with a Sensititre 0.5
as §3
A general note: Broth dilution looks for growth in wells or tubes with falling amounts of substance.

Where [3] appears, read: read-out: MIC K. pneumoniae EN0140.
Setting [4] is: read-out: MIC K. pneumoniae EN0142.
Where [5] appears, read: read-out: MIC K. pneumoniae EN0143.
Where [6] appears, read: read-out: MIC K. pneumoniae EN0144.
Where [7] appears, read: read-out: MIC K. pneumoniae EN0145.
The mark [8] stands for this setting: read-out: MIC K. pneumoniae EN0233.
Where [9] appears, read: read-out: MIC K. pneumoniae EN0245.
Setting [10] is: read-out: MIC K. pneumoniae EN0504.

Converted amounts (≈) assume the structure as drawn. Where two headings read alike, the source gives them in different places. Bounds are passed on as bounds.

The source of these data is PMC11009625, “Antibiotic class with potent in vivo activity targeting lipopolysaccharide synthesis in Gram-negative bacteria” (Proceedings of the National Academy of Sciences of the …, 2024).

The term MIC denotes the lowest concentration found to suppress growth. For `CO/N=C(\C(=O)N[C@@H]1C(=O)N2C(C(=O)O)=C(COC(C)=O)CS[C@H]12)c1csc(N)n1` [Cefotaxime], the minimal inhibitory concentration (MIC) in assay [1] (read-out: MIC E. coli EN0134) is 8 µg/mL (≈ 17.6 µM); in assay [1] (read-out: MIC E. coli EN0135), 2 µg/mL (≈ 4.39 µM); in assay [1] (read-out: MIC E. coli EN0136) it was 4 µg/mL (≈ 8.78 µM); in assay [1] (read-out: MIC E. coli EN0137) it was more than 64 µg/mL; in assay [1] (read-out: MIC E. coli EN0138) it was more than 64 µg/mL; in assay [1] (read-out: MIC E. coli EN0139), more than 64 µg/mL. Besides, the MIC is more than 64 µg/mL in assay [1] (read-out: MIC E. coli EN0303); more than 64 µg/mL in assay [1] (read-out: MIC E. coli EN0481); more than 64 µg/mL in assay [2] (setting [3]); more than 64 µg/mL in assay [2] (setting [4]); 16 µg/mL (≈ 35.1 µM) in assay [2] (setting [5]); more than 64 µg/mL in assay [2] (setting [6]). Moreover, the minimal inhibitory concentration (MIC) is more than 64 µg/mL in assay [2] (setting [7]); more than 64 µg/mL in assay [2] (setting [8]); 64 µg/mL (≈ 141 µM) in assay [2] (setting [9]); more than 64 µg/mL in assay [2] (setting [10]); 0.5 µg/mL (≈ 1.1 µM) in the assay with E. coli ATCC 25922.
For the compound `CNC(C)C1CCC(N)C(OC2C(N)CC(N)C(OC3OCC(C)(O)C(NC)C3O)C2O)O1` (centres unmarked) [Gentamicin], the minimum inhibitory concentration (MIC) in assay [1] (read-out: MIC E. coli EN0134) is 2 µg/mL (≈ 4.19 µM); in assay [1] (read-out: MIC E. coli EN0135), more than 64 µg/mL; in assay [1] (read-out: MIC E. coli EN0136) it was more than 64 µg/mL; in assay [1] (read-out: MIC E. coli EN0137) it was more than 64 µg/mL; in assay [1] (read-out: MIC E. coli EN0138) it was 8 µg/mL (≈ 16.8 µM); in assay [1] (read-out: MIC E. coli EN0139) it was 2 µg/mL (≈ 4.19 µM). Besides, the MIC in assay [1] (read-out: MIC E. coli EN0303) was 2 µg/mL (≈ 4.19 µM); in assay [1] (read-out: MIC E. coli EN0481) it was more than 64 µg/mL; in assay [2] (setting [3]), more than 64 µg/mL; in assay [2] (setting [4]) it was 64 µg/mL (≈ 134 µM); in assay [2] (setting [5]) it was 0.5 µg/mL (≈ 1.05 µM); in assay [2] (setting [6]), more than 64 µg/mL. For the same compound, the MIC in assay [2] (setting [7]) is 2 µg/mL (≈ 4.19 µM); in assay [2] (setting [8]), more than 64 µg/mL; in assay [2] (setting [9]), 2 µg/mL (≈ 4.19 µM); in assay [2] (setting [10]), 0.5 µg/mL (≈ 1.05 µM); in the assay with E. coli ATCC 25922, 1 µg/mL (≈ 2.09 µM).
Take `C[C@@H](O)[C@H]1C(=O)N2C(C(=O)O)=C(S[C@@H]3CN[C@H](C(=O)N(C)C)C3)[C@H](C)[C@H]12` [Meropenem]: the MIC in assay [1] (read-out: MIC E. coli EN0134), in assay [1] (read-out: MIC E. coli EN0135), in assay [1] (read-out: MIC E. coli EN0136), in assay [1] (read-out: MIC E. coli EN0137), in assay [1] (read-out: MIC E. coli EN0138) and in assay [1] (read-out: MIC E. coli EN0139) was not above 0.125 µg/mL in each case. The MIC in assay [1] (read-out: MIC E. coli EN0303) is not above 0.125 µg/mL; in assay [1] (read-out: MIC E. coli EN0481), not above 0.125 µg/mL; in assay [2] (setting [3]), 2 µg/mL (≈ 5.22 µM); in assay [2] (setting [4]) it was 0.5 µg/mL (≈ 1.3 µM); in assay [2] (setting [5]), not above 0.125 µg/mL; in assay [2] (setting [6]) it was 64 µg/mL (≈ 167 µM). The MIC in assay [2] (setting [7]) was 8 µg/mL (≈ 20.9 µM); in assay [2] (setting [8]), 2 µg/mL (≈ 5.22 µM); in assay [2] (setting [9]), 2 µg/mL (≈ 5.22 µM); in assay [2] (setting [10]), 4 µg/mL (≈ 10.4 µM); in the assay with E. coli ATCC 25922 it was not above 0.125 µg/mL.
Colistin: the “MIC E. coli EN0135” value in assay [1] (MDR (aac(3)-IIa, blaTEM-1B, blaSHV-12 ...)) was 2 µg/mL. In addition, in assay [1] (MDR (blaCMY-4, blaTEM-1B ...)), the “MIC E. coli EN0134” value worked out at 2 µg/mL. In assay [1] (MDR (blaCTX-M-14b, blaTEM-1C ...)), the “MIC E. coli EN0138” value worked out at 2 µg/mL. The “MIC E. coli EN0139” value in assay [1] (MDR (blaOXA-1, blaCTX-M-15 ...)) turned out to be 2 µg/mL. Also, the “MIC E. coli EN0137” value in assay [1] (MDR (blaOXA-1, blaTEM-1B, blaCTX-M-15 ...)) is 2 µg/mL. In addition, the “MIC E. coli EN0136” value in assay [1] (MDR (blaOXA-2, blaTEM-1B, blaCTX-M-2 ...)) turned out to be 1 µg/mL. For the same compound, in assay [1] (colistinR (mcr-1), MDR (rmtB ...)), the “MIC E. coli EN0481” value stood at 8 µg/mL. Further, the “MIC E. coli EN0303” value in assay [1] (colistinR (pmrB T156M), MDR) amounted to 8 µg/mL. For the same compound, the “MIC K. pneumoniae EN0144” value in assay [2] (MBL (blaVIM-26), MDR) came to 2 µg/mL. Besides, in assay [2] (MDR (blaCTX-M-15 ...)), the “MIC K. pneumoniae EN0145” value worked out at 2 µg/mL. The “MIC K. pneumoniae EN0140” value in assay [2] (MDR (blaDHA-1 ...), OmpK36 loss) is 2 µg/mL. For the same compound, in assay [2] (MDR (blaOXA-2, blaSHV-12 ...)), the “MIC K. pneumoniae EN0143” value was determined as 2 µg/mL. Further, in assay [2] (carbapenemR (blaKPC-2), MDR), the “MIC K. pneumoniae EN0142” value stood at 2 µg/mL. For the same compound, the “MIC K. pneumoniae EN0233” value in assay [2] (carbapenemR (blaOXA-48), MDR, OmpK36 loss) amounted to 32 µg/mL. The “MIC K. pneumoniae EN0245” value in assay [2] (colistinR (mgrB::IS10), MDR) turned out to be 64 µg/mL. Besides, the “MIC K. pneumoniae EN0504” value in assay [2] (colistinR, MDR) is 64 µg/mL. Moreover, the “MIC E. coli EN0001” value with E. coli ATCC 25922 came out at 2 µg/mL.
